The values that follow come from PubChem BioAssay AID1259407 (Chemical Carcinogenesis Research Information System (CCRIS), 2018).

Molecules are shown by their SMILES. Active and inactive are the calls of the source. The rule behind the calls is not given here.

The test system of this data set is CCRIS mutagenicity, Ames/micronucleus/aberration tests. Kind of data set: CCRIS mutagenicity studies.
The mark [1] stands for this setting: Test System: AMES SALMONELLA TYPHIMURIUM, Strain/Indicator: TA100, Metabolic Activation: NONE, Method: STANDARD PLATE.

`Nc1ccc(Sc2ccc(N)cc2)cc1`: the mutagenic call reads like this: (Test System: AMES SALMONELLA TYPHIMURIUM, Strain/Indicator: TA97, Metabolic Activation: HAMSTER, LIVER, S-9, AROCLOR 1254 (10%), Method: PREINCUBATION) “active; positive”; (Test System: AMES SALMONELLA TYPHIMURIUM, Strain/Indicator: TA97, Metabolic Activation: NONE, Method: PREINCUBATION) “inactive; negative”; (Test System: AMES SALMONELLA TYPHIMURIUM, Strain/Indicator: TA97, Metabolic Activation: RAT, LIVER, S-9, AROCLOR 1254 (10%), Method: PREINCUBATION) “active; positive”; (Test System: AMES SALMONELLA TYPHIMURIUM, Strain/Indicator: TA98, Metabolic Activation: HAMSTER, LIVER, S-9, AROCLOR 1254 (10%), Method: PREINCUBATION) “active; positive”; (Test System: AMES SALMONELLA TYPHIMURIUM, Strain/Indicator: TA98, Metabolic Activation: NONE, Method: PREINCUBATION) “inactive; negative”; (Test System: AMES SALMONELLA TYPHIMURIUM, Strain/Indicator: TA98, Metabolic Activation: RAT, LIVER, S-9, AROCLOR 1254 (10%), Method: PREINCUBATION) “active; positive”. Further, the mutagenic call by setting is: (Test System: AMES SALMONELLA TYPHIMURIUM, Strain/Indicator: TA98, Metabolic Activation: RAT, LIVER, S-9, PCB, Method: PREINCUBATION) “active; positive”; (Test System: AMES SALMONELLA TYPHIMURIUM, Strain/Indicator: TA100, Metabolic Activation: HAMSTER, LIVER, S-9, AROCLOR 1254 (10%), Method: PREINCUBATION) “active; positive”; (Test System: AMES SALMONELLA TYPHIMURIUM, Strain/Indicator: TA100, Metabolic Activation: NONE, Method: PREINCUBATION) “active; positive”; (Test System: AMES SALMONELLA TYPHIMURIUM, Strain/Indicator: TA100, Metabolic Activation: RAT, LIVER, S-9, AROCLOR 1254 (10%), Method: PREINCUBATION) “active; positive”; (Test System: AMES SALMONELLA TYPHIMURIUM, Strain/Indicator: TA100, Metabolic Activation: RAT, LIVER, S-9, PCB, Method: PREINCUBATION) “active; positive”; (Test System: AMES SALMONELLA TYPHIMURIUM, Strain/Indicator: TA1535, Metabolic Activation: HAMSTER, LIVER, S-9, AROCLOR 1254 (10%), Method: PREINCUBATION) “inactive; negative”. Moreover, the mutagenic call reads like this: (Test System: AMES SALMONELLA TYPHIMURIUM, Strain/Indicator: TA1535, Metabolic Activation: NONE, Method: PREINCUBATION) “inactive; negative”; (Test System: AMES SALMONELLA TYPHIMURIUM, Strain/Indicator: TA1535, Metabolic Activation: RAT, LIVER, S-9, AROCLOR 1254 (10%), Method: PREINCUBATION) “inactive; negative”; (Test System: AMES SALMONELLA TYPHIMURIUM, Strain/Indicator: TA1537, Metabolic Activation: HAMSTER, LIVER, S-9, AROCLOR 1254 (10%), Method: PREINCUBATION) “inactive; negative”; (Test System: AMES SALMONELLA TYPHIMURIUM, Strain/Indicator: TA1537, Metabolic Activation: NONE, Method: PREINCUBATION) “inactive; negative”; (Test System: AMES SALMONELLA TYPHIMURIUM, Strain/Indicator: TA1537, Metabolic Activation: RAT, LIVER, S-9, AROCLOR 1254 (10%), Method: PREINCUBATION) “inactive; negative”.

On to `O=C(N/N=C/c1ccc([N+](=O)[O-])o1)c1ccc(O)cc1`, for which the mutagenic call runs as follows: (Test System: AMES SALMONELLA TYPHIMURIUM, Strain/Indicator: TA100(FR1), Metabolic Activation: NONE, Method: STANDARD PLATE) “active; positive”; (Test System: AMES SALMONELLA TYPHIMURIUM, Strain/Indicator: TA100(FR1), Metabolic Activation: RAT, LIVER, S-9, PHENOBARBITAL AND 3-METHYLCHOLANTHRENE, Method: STANDARD PLATE) “active; positive”; under setting [1], “active; positive”; (Test System: AMES SALMONELLA TYPHIMURIUM, Strain/Indicator: TA100, Metabolic Activation: RAT, LIVER, S-9, PHENOBARBITAL AND 3-METHYLCHOLANTHRENE, Method: STANDARD PLATE) “active; positive”; (Test System: CHINESE HAMSTER V-79, Strain/Indicator: V-79/6-THIOGUANINE, Metabolic Activation: NONE) “inactive; negative”; (Test System: CHINESE HAMSTER V-79, Strain/Indicator: V-79/6-THIOGUANINE, Metabolic Activation: RAT, LIVER, HEPATOCYTES) “inactive; negative”. Besides, the mutagenic call by setting is: (Test System: CHINESE HAMSTER V-79, Strain/Indicator: V-79/OUABAIN, Metabolic Activation: NONE) “inactive; negative”; (Test System: CHINESE HAMSTER V-79, Strain/Indicator: V-79/OUABAIN, Metabolic Activation: RAT, LIVER, HEPATOCYTES) “inactive; negative”.

With `CCCCOc1cc([N+](=O)[O-])ccc1C(=O)NOC(C)=O`, the mutagenic call was “active; positive” under setting [1] and “active; positive” (Test System: AMES SALMONELLA TYPHIMURIUM, Strain/Indicator: TA100, Metabolic Activation: RAT S9, AROCLOR, Method: STANDARD PLATE).

Consider `O=CN(O)c1ccc(Oc2c(Cl)cc(Cl)cc2Cl)cc1`, for which the mutagenic call is “inactive; negative” under setting [1] and “active; positive” (Test System: AMES SALMONELLA TYPHIMURIUM, Strain/Indicator: TA100, Metabolic Activation: RAT, LIVER, S-9, KANECLOR 500, Method: STANDARD PLATE).

Regarding `CCN(Cc1cccc(S(=O)(=O)O)c1)c1ccc(C(=C2C=CC(=[N+](CC)Cc3cccc(S(=O)(=O)O)c3)C=C2)c2ccc(O)cc2S(=O)(=O)[O-])cc1`, the mutagenic call was “inactive; negative” (End Point: IN VIVO MICRONUCLEUS, Test System: BONE MARROW POLYCHROMATIC ERYTHROCYTES, Species: MOUSE, Strain/Sex: DDY/MALE, Route: IP); “inactive; negative” (Test System: Mouse lymphoma, Strain/Indicator: L5178Y (tk+/tk-), Metabolic Activation: None, Method: Suspension/plate); “inactive; negative” (Test System: Mouse lymphoma, Strain/Indicator: L5178Y (tk+/tk-), Metabolic Activation: Rat, Liver, S-9, Aroclor 1254, Method: Suspension/plate).

As for `CC(C)C1(C)N=C(c2ncccc2C(=O)O)NC1=O` (configuration not stated), the mutagenic call (End Point: IN VIVO MICRONUCLEUS, Test System: BONE MARROW POLYCHROMATIC ERYTHROCYTES, Species: MOUSE, Strain/Sex: SWISS/MALE, FEMALE, Route: IP 2X IN AQUEOUS SUSPENSION WITHIN 24 HR) is “inactive; negative”.

Take `Cn1cnc2ccc([N+](=O)[O-])cc21`: the mutagenic call (Test System: AMES SALMONELLA TYPHIMURIUM, Strain/Indicator: TA98, Metabolic Activation: NONE, Method: STANDARD PLATE) was “active; positive”.

As for `CN(C)S(=O)(=O)CCNC(=O)N(CCCl)N=O`, the mutagenic call was “active; positive” under setting [1] and “active; positive” (Test System: AMES SALMONELLA TYPHIMURIUM, Strain/Indicator: TA100, Metabolic Activation: RAT, LIVER, S-9, AROCLOR 1254, Method: STANDARD PLATE).

On to `CC(NCc1ccccc1)C(=O)NCc1ccccc1` (configuration not stated), for which the mutagenic call under setting [1] was “inactive; negative”.
